Data as given in patent US11306078B2, “Piperidine CXCR7 receptor modulators” (IDORSIA PHARMACEUTICALS LTD., priority 2016, dated 2022).

Molecular target: human chemokine receptor CXCR7 (Homo sapiens (Human), UniProt P25106)
Assay: Tango CXCR7-bla U2OS beta-arrestin recruitment assay (beta-lactamase reporter, FRET), antagonism of CXCL12/SDF1-α;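 also: compounds preincubated 15 min before CXCL12 addition, then 22 h at 37 °C, FRET emission ratio read with CCF4-AM substrate after 2 h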
Format: cell-based
Conditions: antagonistic effect on CXCR7; Tango CXCR7-bla U2OS cells, CXCL12/SDF1-α at its EC80

human chemokine receptor CXCR7, sequence (P25106 whole entry): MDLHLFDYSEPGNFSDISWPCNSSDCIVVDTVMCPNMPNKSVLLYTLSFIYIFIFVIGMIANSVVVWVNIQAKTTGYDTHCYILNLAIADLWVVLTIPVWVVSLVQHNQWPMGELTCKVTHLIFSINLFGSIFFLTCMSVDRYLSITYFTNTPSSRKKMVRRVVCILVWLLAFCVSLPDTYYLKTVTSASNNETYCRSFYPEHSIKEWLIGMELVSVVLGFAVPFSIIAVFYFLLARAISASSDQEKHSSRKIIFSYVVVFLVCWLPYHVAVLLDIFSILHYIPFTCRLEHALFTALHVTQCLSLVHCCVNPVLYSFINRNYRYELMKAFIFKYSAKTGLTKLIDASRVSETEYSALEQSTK

| Structure (SMILES) | IC50 |
| --- | --- |
| O=C(N[C@H]1CCN(C2CCCC2)C[C@@H]1C(=O)NC1(c2cccnn2)CC1)c1cc(-c2ccc(F)cc2F)on1 [Example 1.182, (3S,4S)-1-Cyclopentyl-4-{[5-(2,4-difluoro-phenyl)-isoxazole-3-carbonyl]-amino}-piperidine-3-carboxylic acid (1-pyridazin-3-yl-cyclopropyl)-amide] | 218 nM |
| Cc1cc(C)nc(C2(NC(=O)[C@H]3CN(C4CCCC4)CC[C@@H]3NC(=O)c3cc(-c4ccc(F)cc4F)on3)CC2)n1 [Example 1.184, (3S,4S)-1-Cyclopentyl-4-{[5-(2,4-difluoro-phenyl)-isoxazole-3-carbonyl]-amino}-piperidine-3-carboxylic acid [1-(4,6-dimethyl-pyrimidin-2-yl)-cyclopropyl]-amide] | 3 nM |
| Cc1cc(C)nc(C2(NC(=O)[C@H]3CN(CC4CC4)CC[C@@H]3NC(=O)c3cc(-c4ccc(F)cc4F)on3)CC2)n1 [Example 1.185, (3S,4S)-1-Cyclopropylmethyl-4-{[5-(2,4-difluoro-phenyl)-isoxazole-3-carbonyl]-amino}-piperidine-3-carboxylic acid [1-(4,6-dimethyl-pyrimidin-2-yl)-cyclopropyl]-amide] | 9 nM |
| CCN1CC[C@@H](NC(=O)c2cc(-c3ccc(F)cc3F)on2)[C@H](C(=O)N(C)C)C1 [Example 2.002] | 670 nM |
| CN(C)C(=O)[C@@H]1CN(CC(C)(C)C)CC[C@H]1NC(=O)c1cc(-c2ccc(F)cc2F)on1 [Example 2.02] | 248 nM |
| CC(C)N1CC[C@@H](NC(=O)c2cc(-c3ccc(F)cc3F)on2)[C@H](C(=O)N(C)CCc2ccccc2)C1 [Example 2.003] | 34 nM |
| CN(C)C(=O)[C@@H]1CN(CC2CCCC2)CC[C@H]1NC(=O)c1cc(-c2ccc(F)cc2F)on1 [Example 2.03] | 74 nM |
| CCN1CC[C@@H](NC(=O)c2cc(-c3ccc(F)cc3F)on2)[C@H](C(=O)N(C)CCc2ccccc2)C1 [Example 2.004] | 118 nM |
| O=C(N[C@@H]1CCN([C@@H]2CCCC[C@H]2F)C[C@H]1C(=O)O)c1cc(-c2ccc(F)cc2F)on1 [Example 2.04] | 475 nM |
| CN(CCc1ccccc1)C(=O)[C@@H]1CN(C2CCCC2)CC[C@H]1NC(=O)c1cc(-c2ccc(F)cc2F)on1 [Example 2.005] | 25 nM |
| CN(CCc1ccccc1)C(=O)[C@@H]1CN([C@@H]2CCCC[C@H]2O)CC[C@H]1NC(=O)c1cc(-c2ccc(F)cc2F)on1 [Example 2.05] | 15 nM |
| CN(CCc1ccccc1)C(=O)[C@@H]1CN(CC2CC2)CC[C@H]1NC(=O)c1cc(-c2ccc(F)cc2F)on1 [Example 2.006] | 15 nM |
| O=C(N[C@@H]1CCN([C@@H]2CCCC[C@H]2O)C[C@H]1C(=O)NC1(c2ncccn2)CC1)c1cc(-c2ccc(F)cc2F)on1 [Example 2.06] | 4 nM |
| CC(NC(=O)[C@@H]1CN(C(C)C)CC[C@H]1NC(=O)c1cc(-c2ccc(F)cc2F)on1)c1ccccn1 (stereo partly drawn) [Example 2.007] | 88 nM |
| CC(C)CN1CC[C@H](NC(=O)c2cc(-c3ccc(F)cc3F)on2)[C@@H](C(=O)NC2(c3ncccn3)CC2)C1 [Example 2.07] | 11 nM |
| CCN1CC[C@@H](NC(=O)c2cc(-c3ccc(F)cc3F)on2)[C@H](C(=O)NC(C)c2ccccn2)C1 (stereo partly drawn) [Example 2.008] | 405 nM |
| O=C(N[C@@H]1CCN(CC2CC2)C[C@H]1C(=O)NCCc1ccccn1)c1cc(-c2ccc(F)cc2F)on1 [Example 2.08] | 311 nM |
| CC(NC(=O)[C@@H]1CN(C2CCCC2)CC[C@H]1NC(=O)c1cc(-c2ccc(F)cc2F)on1)c1ccccn1 (stereo partly drawn) [Example 2.009] | 10 nM |
| CC(NC(=O)[C@@H]1CN(CC2CC2)CC[C@H]1NC(=O)c1cc(-c2ccc(F)cc2F)on1)c1cccc[n+]1[O-] (stereo partly drawn) [Example 2.011] | 114 nM |
| CC(C1CC1)N1CC[C@@H](NC(=O)c2cc(-c3ccc(F)cc3F)on2)[C@H](C(=O)N(C)C)C1 (stereo partly drawn) [Example 2.013] | 28 nM |

| Structure (SMILES) | IC50 |
| --- | --- |
| CN(C)C(=O)[C@@H]1CN([C@@H]2CCC[C@H]2CO)CC[C@H]1NC(=O)c1cc(-c2ccc(F)cc2F)on1 [Example 2.014] | 269 nM |
| CC[C@@H]1CCC[C@H]1N1CC[C@@H](NC(=O)c2cc(-c3ccc(F)cc3F)on2)[C@H](C(=O)N(C)C)C1 [Example 2.015] | 54 nM |
| C[C@@H]1CC[C@H]1N1CC[C@@H](NC(=O)c2cc(-c3ccc(F)cc3F)on2)[C@H](C(=O)N(C)C)C1 [Example 2.016] | 80 nM |
| C[C@@H]1CC[C@H]1N1CC[C@@H](NC(=O)c2cc(-c3ccc(F)cc3F)on2)[C@H](C(=O)N(C)C)C1 [Example 2.016a] | 49 nM |
| C[C@@H]1CC[C@H]1N1CC[C@@H](NC(=O)c2cc(-c3ccc(F)cc3F)on2)[C@H](C(=O)N(C)C)C1 [Example 2.016b] | 63 nM |
| CN(C)C(=O)[C@@H]1CN(C2CCC2(C)C)CC[C@H]1NC(=O)c1cc(-c2ccc(F)cc2F)on1 (stereo partly drawn) [Example 2.017] | 73 nM |
| CN(C)C(=O)[C@@H]1CN(C2CCC(C)(C)C2)CC[C@H]1NC(=O)c1cc(-c2ccc(F)cc2F)on1 (stereo partly drawn) [Example 2.018] | 145 nM |
| CN(C)C(=O)[C@@H]1CN(C2CCCC2)CC[C@H]1NC(=O)c1cc(-c2ccc(F)cc2F)on1 [Example 2.019] | 126 nM |
| CN(C)C(=O)[C@@H]1CN(C2CCCC2)CC[C@H]1NC(=O)c1cc(-c2ccc(F)cc2F)on1 [Example 2.019a] | 44 nM |
| CC(C)CCN1CC[C@@H](NC(=O)c2cc(-c3ccc(F)cc3F)on2)[C@H](C(=O)N(C)C)C1 [Example 2.021] | 293 nM |
| CN(C)C(=O)[C@@H]1CN(CCC(C)(C)C)CC[C@H]1NC(=O)c1cc(-c2ccc(F)cc2F)on1 [Example 2.022] | 155 nM |
| C[C@@H]1CCC[C@H]1N1CC[C@@H](NC(=O)c2cc(-c3ccc(F)cc3F)on2)[C@H](C(=O)N(C)C)C1 [Example 2.023] | 37 nM |
| C[C@@H]1CCC[C@H]1N1CC[C@@H](NC(=O)c2cc(-c3ccc(F)cc3F)on2)[C@H](C(=O)N(C)C)C1 [Example 2.023a] | 9 nM |
| C[C@@H]1CCC[C@H]1N1CC[C@@H](NC(=O)c2cc(-c3ccc(F)cc3F)on2)[C@H](C(=O)N(C)C)C1 [Example 2.023b] | 26 nM |
| CN(C)C(=O)[C@@H]1CN(C2CCCC(C)(C)C2)CC[C@H]1NC(=O)c1cc(-c2ccc(F)cc2F)on1 (stereo partly drawn) [Example 2.024] | 101 nM |
| CN(C)C(=O)[C@@H]1CN(C2CC3(CCC3)C2)CC[C@H]1NC(=O)c1cc(-c2ccc(F)cc2F)on1 [Example 2.025] | 435 nM |
| CN(C)C(=O)[C@@H]1CN(C2CCC(F)CC2)CC[C@H]1NC(=O)c1cc(-c2ccc(F)cc2F)on1 (stereo partly drawn) [Example 2.026] | 249 nM |
| CN(C)C(=O)[C@@H]1CN(C2CCC(F)(F)CC2)CC[C@H]1NC(=O)c1cc(-c2ccc(F)cc2F)on1 [Example 2.027] | 745 nM |
| CN(C)C(=O)[C@@H]1CN(C2CCC2)CC[C@H]1NC(=O)c1cc(-c2ccc(F)cc2F)on1 [Example 2.028] | 60 nM |
| CN(C)C(=O)[C@@H]1CN(CC2CC2)CC[C@H]1NC(=O)c1cc(-c2ccc(F)cc2F)on1 [Example 2.029] | 60 nM |

| Structure (SMILES) | IC50 |
| --- | --- |
| CN(C)C(=O)[C@@H]1CN(C2CC(C)(C)C2)CC[C@H]1NC(=O)c1cc(-c2ccc(F)cc2F)on1 [Example 2.031] | 558 nM |
| CO[C@@H]1CCC[C@@H](N2CC[C@@H](NC(=O)c3cc(-c4ccc(F)cc4F)on3)[C@H](C(=O)N(C)C)C2)C1 [Example 2.032] | 192 nM |
| CO[C@@H]1CCCC[C@H]1N1CC[C@@H](NC(=O)c2cc(-c3ccc(F)cc3F)on2)[C@H](C(=O)N(C)C)C1 [Example 2.033] | 132 nM |
| CN(C)C(=O)[C@@H]1CN(CC2(C)CC2)CC[C@H]1NC(=O)c1cc(-c2ccc(F)cc2F)on1 [Example 2.034] | 87 nM |
| CN(C)C(=O)[C@@H]1CN(CC2(C)CCC2)CC[C@H]1NC(=O)c1cc(-c2ccc(F)cc2F)on1 [Example 2.035] | 121 nM |
| CN(C)C(=O)[C@@H]1CN(CC2=CCCC2)CC[C@H]1NC(=O)c1cc(-c2ccc(F)cc2F)on1 [Example 2.036] | 165 nM |
| CN(C)C(=O)[C@@H]1CN([C@@H]2C[C@@H]3CC[C@@H]2C3)CC[C@H]1NC(=O)c1cc(-c2ccc(F)cc2F)on1 [Example 2.037] | 161 nM |
| CN(C)C(=O)[C@@H]1CN(CC2CCC2)CC[C@H]1NC(=O)c1cc(-c2ccc(F)cc2F)on1 [Example 2.038] | 99 nM |
| CN(C)C(=O)[C@@H]1CN(CCC2CC2)CC[C@H]1NC(=O)c1cc(-c2ccc(F)cc2F)on1 [Example 2.039] | 83 nM |
| CN(C)C(=O)[C@@H]1CN(CC2CC2)CC[C@H]1NC(=O)c1cc(-c2ccc(F)cc2F)on1 [Example 2.045] | 114 nM |
| CC(C1CC1)N1CC[C@@H](NC(=O)c2cc(-c3ccc(F)cc3F)on2)[C@H](C(=O)N(C)C)C1 (stereo partly drawn) [Example 2.046] | 16 nM |
| CN(C)C(=O)[C@@H]1CN(C2CCCC23CC3)CC[C@H]1NC(=O)c1cc(-c2ccc(F)cc2F)on1 (stereo partly drawn) [Example 2.047] | 145 nM |
| CN(C)C(=O)[C@@H]1CN([C@@H]2CCCC[C@H]2O)CC[C@H]1NC(=O)c1cc(-c2ccc(F)cc2F)on1 [Example 2.048] | 501 nM |
| C[C@H]([C@@H](C)O)N1CC[C@@H](NC(=O)c2cc(-c3ccc(F)cc3F)on2)[C@H](C(=O)N(C)C)C1 [Example 2.049] | 709 nM |
| C[C@H]([C@@H](C)O)N1CC[C@@H](NC(=O)c2cc(-c3ccc(F)cc3F)on2)[C@H](C(=O)N(C)CCc2ccccc2)C1 [Example 2.051] | 42 nM |
| CN(CCc1ccccc1)C(=O)[C@@H]1CN(CCO)CC[C@H]1NC(=O)c1cc(-c2ccc(F)cc2F)on1 [Example 2.052] | 267 nM |
| C[C@@H](NC(=O)[C@@H]1CN([C@@H]2CCCC[C@H]2O)CC[C@H]1NC(=O)c1cc(-c2ccc(F)cc2F)on1)c1ccccn1 [Example 2.053] | 26 nM |
| C[C@H]([C@@H](C)O)N1CC[C@@H](NC(=O)c2cc(-c3ccc(F)cc3F)on2)[C@H](C(=O)N[C@H](C)c2ccccn2)C1 [Example 2.054] | 138 nM |
| CN(CCc1ccccc1)C(=O)[C@@H]1CNCC[C@H]1NC(=O)c1cc(-c2ccc(F)cc2F)on1 [Example 2.058] | 347 nM |
| O=C(N[C@H]1CCN(CC2CC2)C[C@@H]1C(=O)NC1(c2cccc[n+]2[O-])CC1)c1cc(-c2ccc(F)cc2F)on1 [Example 2.061] | 41 nM |
